Where two headings read alike, the source gives them in different places.
What was measured:
[1] = target: T1, DCAF15 RBM39 ternary complex (Homo sapiens, UniProt Q14498+Q66K64, DEL276-383); test: DCAF15 RBM39 complex formation assay (FRET); format: biochemical
T1 construct: Amino acids 150 to 331 of RBM39 were cloned into pGEX4T3; GST (from the pGEX4T3 vector, own knowledge) followed by a TEV cleavage site (N); made in house; host or cells: Sf9 baculovirus (DDB1ΔB/DCAF15); E. coli (RBM39 R1R2)
Text: (§1) Proteins used for the assays were as follows: Human DDA1 (UniProt:Q9BW61), DDB1 (UniPro: Q16531), and DCAF15 (UniProt: Q66K64) coding sequences were cloned into pFastBac1 vectors and were co-expressed in Sf9 cells using Bac-to-Bac baculovirus expression system (Thermo Fisher Scientific). The expression construct for DCAF15 includes a N-terminal His6-tag to facilitate the purification.
DCAF15 RBM39 Complex Formation Assay
LANCE Eu-W1024 Anti-6×His and SureLight Allophycocyanin-anti-FLAG antibodies were purchased from Perkin Elmer. Human DDB1DB and His-tagged DCAF15 were co-expressed in baculovirus/sf9 system. […] The His-tagged DCAF15 contains six histidine residues directly preceding the DCAF15 sequence without any linker. An RBM39 fragment containing RRM1 and RRM2 was expressed in E. coli.
A compound of the present disclosure in DMSO (2 μL) was transferred to a 384-well assay plate. Compound was added in 14 points, 3-fold serial dilution (1 μM to 0.6 pico molar) in DMSO. […] FRET assay buffer (25 mM HEPES, pH 7.5, 100 mM NaCl, […], 0.5 mM TCEP, 0.005% Tween-20, 0.2 nM Eu-W1024 Anti-6×His, 50 nM SureLight Allophycocyanin-anti-FLAG, 20 nM DDB1DB/DCAF15, 50 nM RBM39 R1R2) was added and the resulting solution was incubated overnight at 4° C. […] Low signal controls containing no compound and high signal controls containing 10 mM indisulam were measured for each plate.
EC50 values were calculated using Dotmatics template equation for 4-parameter fit.
Results are expressed as % formation using the following equation: […]

[2] = target: T2, DCAF15 (DDA1-DDB1ΔB-DCAF15Δpro) (Homo sapiens, UniProt Q66K64, DEL276-383); test: DCAF15 displacement assay (displacement FRET, probe PT7795); format: binding
T2 construct: made in house; host or cells: Sf9 (Bac-to-Bac baculovirus)
Text: as §1
DCAF15 Displacement Assay (Displacement FRET KD)
Synthesis of the probe PT7795 is described in the article.
Binding of PT7795 to DDA1-DDB1AB-DCAF15Δpro was measured by the FRET signal between europium-labeled anti-His antibody (AD0205, Perkin Elmer) that is associated with His-tagged DCAF15 and ALX647 moiety in PT7795. […] After equilibrating for 2-3 hours at 4° C., the plate was removed from the incubator, briefly spun, then read on a Spark 10 (Tecan) at the excitation/emission wavelength of 340 nm/615 nm and 340 nm/665 nm.
Binding of compounds in this disclosure to DCAF15 was measured in a competition by the displacement of PT7795. The concentration of PT7795 was kept at 300 nM while the concentration of a compound was varied from 0.01 to 100 μM. The incubation time was increased to 18 hours for enhanced signal to noise level.
F=Fmin+(Fmax−Fmin)/(1+10^(logIC50−log[Compound])^n) (Equation 2)
The Kds can then be calculated from IC50s using Equation 3 (Cheng-Prusoff equation).

[3] = FRET ratio, 20 nM DDB1DB/DCAF15, 50 nM RBM39 R1R2, overnight at 4° C., read-out: DCAF15 RBM39 ternary complex EC50
[4] = displacement of PT7795 (300 nM), compound 0.01 to 100 μM, 18 hours incubation, read-out: DCAF15 displacement IC50

T1 sequence (Q66K64 with tags, fused parts or gaps DEL276-383): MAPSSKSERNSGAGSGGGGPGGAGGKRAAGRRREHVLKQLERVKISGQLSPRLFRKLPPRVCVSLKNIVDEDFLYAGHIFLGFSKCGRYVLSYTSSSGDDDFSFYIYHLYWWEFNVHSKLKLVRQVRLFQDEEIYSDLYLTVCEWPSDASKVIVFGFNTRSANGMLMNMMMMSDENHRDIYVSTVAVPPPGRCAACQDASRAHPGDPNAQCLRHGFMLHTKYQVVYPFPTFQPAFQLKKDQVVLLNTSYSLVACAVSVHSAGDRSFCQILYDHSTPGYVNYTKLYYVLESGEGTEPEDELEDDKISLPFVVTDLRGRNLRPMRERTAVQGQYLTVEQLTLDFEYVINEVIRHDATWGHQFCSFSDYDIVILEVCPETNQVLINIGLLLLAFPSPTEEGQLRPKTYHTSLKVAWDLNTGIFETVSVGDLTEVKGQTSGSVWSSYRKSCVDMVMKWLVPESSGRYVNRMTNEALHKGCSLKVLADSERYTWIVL
T1 sequence (Q14498 150-331, stated change not applied): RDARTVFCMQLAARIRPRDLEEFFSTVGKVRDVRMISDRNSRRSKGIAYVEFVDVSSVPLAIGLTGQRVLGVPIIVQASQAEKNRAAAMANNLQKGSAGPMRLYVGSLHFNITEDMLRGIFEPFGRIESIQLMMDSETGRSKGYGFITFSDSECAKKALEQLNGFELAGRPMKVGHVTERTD

Row | SMILES | EC50 [1, 3] [nM] | IC50 [2, 4] [nM] | EC50 [1] [nM] | IC50 [2] [nM]
1 | Cn1ccc(CN2Cc3cc(Cl)c4c(Cl)c[nH]c4c3NS2(=O)=O)cc1=O [Compound 61, 4-((6,7-dichloro-2,2-dioxido-4,9-dihydro-[1,2,6]thiadiazino[4,3-g]indol-3(1H)-yl)methyl)-1-methylpyridin-2(1H)-one] | 123 | 1240 |  | 
2 | Cn1c(CN2Cc3cc(Cl)c4c(Cl)c[nH]c4c3NS2(=O)=O)cccc1=O [Compound 62, 6-((6,7-dichloro-2,2-dioxido-4,9-dihydro-[1,2,6]thiadiazino[4,3-g]indol-3(1H)-yl)methyl)-1-methylpyridin-2(1H)-one] | 155 | 1070 |  | 
3 | CS(=O)(=O)CCCN1Cc2cc(Cl)c3c(Cl)c[nH]c3c2NS1(=O)=O [Compound 77, 6,7-dichloro-3-(3-(methylsulfonyl)propyl)-1,3,4,9-tetrahydro-[1,2,6] thiadiazino[4,3-g]indole 2,2-dioxide] | 0.8 | 680 |  | 
4 | Nc1ccc(CN2Cc3cc(Cl)c4c(Cl)c[nH]c4c3NS2(=O)=O)cc1 [Compound 78, 3-(4-aminobenzyl)-6,7-dichloro-1,3,4,9-tetrahydro-[1,2,6]thiadiazino[4,3-g]indole 2,2-dioxide] | 0.7 | 1170 |  | 
5 | COCCN1Cc2cc(F)c3c(Cl)c[nH]c3c2NS1(=O)=O [Compound 79, 7-chloro-6-fluoro-3-(2-methoxyethyl)-1,3,4,9-tetrahydro-[1,2,6] thiadiazino[4,3-g]indole 2,2-dioxide] | 8.9 | 19500 |  | 
6 | O=S1(=O)Nc2c(ccc3c(Cl)c[nH]c23)CN1C1CCCOC1 (centres unmarked) [Compound 80, 7-chloro-3-(tetrahydro-2H-pyran-3-yl)-1,3,4,9-tetrahydro-[1,2,6]thiadiazino[4,3-g]indole 2,2-dioxide] | 18.2 | 1810 |  | 
7 | COCCN1Cc2ccc3c(Cl)c[nH]c3c2NS1(=O)=O [Compound 81, 7-chloro-3-(2-methoxyethyl)-1,3,4,9-tetrahydro-[1,2,6] thiadiazino[4,3-g]indole 2,2-dioxide] | 17.7 | 32000 |  | 
8 | O=S1(=O)Nc2c(ccc3c(Cl)c[nH]c23)CN1c1cccnc1 [Compound 82, 7-chloro-3-(pyridin-3-yl)-1,3,4,9-tetrahydro-[1,2,6]thiadiazino[4,3-g]indole 2,2-dioxide] | 1.1 | 3320 |  | 
9 | O=S1(=O)Nc2c(cc(Cl)c3c(Cl)c[nH]c23)CN1CC1CC(O)C1 (centres unmarked) [Compound 88, 6,7-dichloro-3-((3-hydroxycyclobutyl)methyl)-1,3,4,9-tetrahydro-[1,2,6]thiadiazino[4,3-g]indole 2,2-dioxide] | 1.6 | 231 |  | 
10 | O=S1(=O)Nc2c(cc(Cl)c3c(Cl)c[nH]c23)CN1CC1CCCO1 (centres unmarked) [Compound 89, 6,7-dichloro-3-((tetrahydrofuran-2-yl)methyl)-1,3,4,9-tetrahydro-[1,2,6] thiadiazino[4,3-g]indole 2,2-dioxide] | 0.8 | 574 |  | 
11 | O=S1(=O)Nc2c(cc(Cl)c3c(Cl)c[nH]c23)CN1CC1CCCNC1 (centres unmarked) [Compound 90, 6,7-dichloro-3-(piperidin-3-ylmethyl)-1,3,4,9-tetrahydro-[1,2,6] thiadiazino[4,3-g]indole 2,2-dioxide] |  |  | 1 | 274
12 | CC(=O)N1CCCC(CN2Cc3cc(Cl)c4c(Cl)c[nH]c4c3NS2(=O)=O)C1 (centres unmarked) [Compound 91, 1-(3-((6,7-dichloro-2,2-dioxido-4,9-dihydro-[1,2,6]thiadiazino[4,3-g]indol-3(1H)-yl)methyl)piperidin-1-yl) ethan-1-one] | 0.4 | 51.8 |  | 
13 | O=C(CN1Cc2cc(Cl)c3c(Cl)c[nH]c3c2NS1(=O)=O)N1CCOCC1 [Compound 92, 2-(6,7-dichloro-2,2-dioxido-4,9-dihydro-[1,2,6]thiadiazino[4,3-g]indol-3(1H)-yl)-1-morpholinoethan-1-one] | 0.7 | 965 |  | 
14 | C=CCN1Cc2cc(Cl)c3c(Cl)c[nH]c3c2NS1(=O)=O [Compound 93, 3-allyl-6,7-dichloro-1,3,4,9-tetrahydro-[1,2,6] thiadiazino[4,3-g]indole 2,2-dioxide] | 1.6 | 773 |  | 
15 | O=S1(=O)Nc2c(cc(Cl)c3c(Cl)c[nH]c23)CN1CCC1COC1 [Compound 94, 6,7-dichloro-3-(2-(oxetan-3-yl)ethyl)-1,3,4,9-tetrahydro-[1,2,6] thiadiazino[4,3-g]indole 2,2-dioxide] | 2.9 | 362 |  | 
16 | O=S1(=O)Nc2c(cc(Cl)c3c(Cl)c[nH]c23)CN1CC1CCCOC1 (centres unmarked) [Compound 95, 6,7-dichloro-3-((tetrahydro-2H-pyran-3-yl)methyl)-1,3,4,9-tetrahydro-[1,2,6] thiadiazino[4,3-g]indole 2,2-dioxide] | 1.2 | 94.9 |  | 
17 | O=S1(=O)Nc2c(cc(Cl)c3c(Cl)c[nH]c23)CN1CC1CCCCO1 (centres unmarked) [Compound 96, 6,7-dichloro-3-((tetrahydro-2H-pyran-2-yl)methyl)-1,3,4,9-tetrahydro-[1,2,6] thiadiazino[4,3-g]indole 2,2-dioxide] | 1.2 | 215 |  | 
18 | O=c1[nH]ccc(CN2Cc3cc(Cl)c4c(Cl)c[nH]c4c3NS2(=O)=O)c1Cl [Compound 97, 3-chloro-4-((6,7-dichloro-2,2-dioxido-4,9-dihydro-[1,2,6]thiadiazino [4,3-g]indol-3(1H)-yl)methyl)pyridin-2(1H)-one] | 1.7 |  |  | 
19 | O=c1cc(CN2Cc3cc(Cl)c4c(Cl)c[nH]c4c3NS2(=O)=O)c(Cl)c[nH]1 [Compound 98, 5-chloro-4-((6,7-dichloro-2,2-dioxido-4,9-dihydro-[1,2,6]thiadiazino [4,3-g]indol-3(1H)-yl)methyl)pyridin-2(1H)-one] | 2.3 | 181 |  | 
20 | COCCN1Cc2cc(F)c3c(C#N)c[nH]c3c2NS1(=O)=O [Compound 99, 6-fluoro-3-(2-methoxyethyl)-1,3,4,9-tetrahydro-[1,2,6] thiadiazino[4,3-g]indole-7-carbonitrile 2,2-dioxide] | 212 | 30800 |  | 
21 | COCCN1Cc2ccc3c(C#N)c[nH]c3c2NS1(=O)=O [Compound 100, 3-(2-methoxyethyl)-1,3,4,9-tetrahydro-[1,2,6] thiadiazino[4,3-g]indole-7-carbonitrile 2,2-dioxide] | 168 | ≥ 100000 |  | 

From US20240294548A1, “TRICYCLIC SULTAMS AND SULFAMIDES AS ANTITUMOR AGENTS” (PELOTON THERAPEUTICS INC., priority 2021, published 2024)
